Data reported in patent US20240374595A1, “SUBSTITUTED 1,1'-BIPHENYL COMPOUNDS, ANALOGUES THEREOF, AND METHODS USING SAME” (Arbutus Biopharma Corporation, priority 2018, published 2024).

Biological target: PD-L1 (Homo sapiens (Human), UniProt Q9NZQ7)
Test: PD-L1 HTRF assay (PD-1/PD-L1 interaction)
Assay type: binding
Conditions: PD-L1 His 6 nM, PD-1 Fc 6 nM; inhibitors 3-fold diluted from 20 μM
Method: PD-L1 small molecule inhibitors were diluted by 3-fold starting from 20 μM and a final concentration of 0.001 μM and added to the well. PD-1 Fc protein was added at the final concentration of 6 nM. PD-L1 His protein, PD-L1 small molecule inhibitors, and PD1 Fc proteins were added to the well in this order, with each 5 μl volume, and were incubated for 15 minutes at room temperature. […] The plate was read using PerkinElmer Envision plate reader and data was analyzed by Prism 6 software.

Sequence of PD-L1 (Q9NZQ7 19-238): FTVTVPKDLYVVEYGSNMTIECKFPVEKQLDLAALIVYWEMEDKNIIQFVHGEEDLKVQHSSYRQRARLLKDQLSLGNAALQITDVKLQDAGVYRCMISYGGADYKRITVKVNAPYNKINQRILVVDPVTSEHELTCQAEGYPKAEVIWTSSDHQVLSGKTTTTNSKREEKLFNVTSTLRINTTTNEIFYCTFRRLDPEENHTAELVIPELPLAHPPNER

5-(((1,3-dihydroxypropan-2-yl)amino)methyl)-N-(3′-(5-(((2-hydroxyethyl)amino)methyl)picolinamido)-2,2′-dimethyl-[1,1′-biphenyl]-3-yl)picolinamide [Example 36]
IC50: 0.4 nM

Cc1c(COc2ccc(C3=NCCN3)c(OCc3cccc(C#N)c3)c2)cccc1-c1ccccc1 [Example 1, 3-((2-(4,5-Dihydro-1H-imidazol-2-yl)-5-((2-methyl-[1,1′-biphenyl]-3-yl)methoxy)phenoxy)methyl)benzonitrile]
IC50: 280 nM

Cc1c(COc2ccc(-c3ncc[nH]3)c(OCc3cccc(C#N)c3)c2)cccc1-c1ccccc1 [Example 2, 3-[[2-(1H-Imidazol-2-yl)-5-[(2-methyl-3-phenyl-phenyl)methoxy]phenoxy]methyl] benzonitrile]
IC50: 20000 nM

Cc1c(COc2ccc(C3=NCCN3C)c(OCc3cccc(C#N)c3)c2)cccc1-c1ccccc1 [Example 3, 3-[[2-(1-Methyl-4,5-dihydroimidazol-2-yl)-5-[(2-methyl-3-phenyl-phenyl)methoxy]phenoxy]methyl]benzonitrile]
IC50: 320 nM

Cc1c(COc2ccc(-c3nccn3C)c(OCc3cccc(C#N)c3)c2)cccc1-c1ccccc1 [Example 4, 3-[[2-(1-methylimidazol-2-yl)-5-[(2-methyl-3-phenyl-phenyl)methoxy]phenoxy]methyl]benzonitrile]
IC50: 5400 nM

Cc1c(COc2ccc(-c3nc(CO)c[nH]3)c(OCc3cccc(C#N)c3)c2)cccc1-c1ccccc1 [Example 5, 3-[[2-[4-(Hydroxymethyl)-1H-imidazol-2-yl]-5-[(2-methyl-3-phenyl-phenyl)methoxy]phenoxy]methyl]benzonitrile]
IC50: 16000 nM

Cc1c(COc2ccc(C3=NCCN3CCO)c(OCc3cccc(C#N)c3)c2)cccc1-c1ccccc1 [Example 6, 3-[[2-[1-(2-Hydroxyethyl)-4,5-dihydroimidazol-2-yl]-5-[(2-methyl-3-phenyl-phenyl)methoxy]phenoxy]methyl]benzonitrile]
IC50: 53 nM

Cc1c(COc2ccc(-c3nccn3CCO)c(OCc3cccc(C#N)c3)c2)cccc1-c1ccccc1 [Example 7, 3-[[2-[1-(2-Hydroxyethyl)imidazol-2-yl]-5-[(2-methyl-3-phenyl-phenyl)methoxy]phenoxy]methyl]benzonitrile]
IC50: 1800 nM

CC(=O)NCc1c[nH]c(-c2ccc(OCc3cccc(-c4ccccc4)c3C)cc2OCc2cccc(C#N)c2)n1 [Example 8, N-[[2-[2-[(3-Cyanophenyl)methoxy]-4-[(2-methyl-3-phenyl-phenyl)methoxy]phenyl]-1H-imidazol-4-yl]methyl]acetamide]
IC50: 19000 nM

Cc1c(COc2ccc(C3=NCCCN3)c(OCc3cccc(C#N)c3)c2)cccc1-c1ccccc1 [Example 9, 3-[[5-[(2-Methyl-3-phenyl-phenyl)methoxy]-2-(1,4,5,6-tetrahydropyrimidin-2-yl)phenoxy]methyl]benzonitrile]
IC50: 150 nM

Cc1c(COc2ccc(C3=NCC(O)CN3)c(OCc3cccc(C#N)c3)c2)cccc1-c1ccccc1 (stereo not drawn) [Example 10, 3-[[2-(5-Hydroxy-1,4,5,6-tetrahydropyrimidin-2-yl)-5-[(2-methyl-3-phenyl-phenyl)methoxy]phenoxy]methyl]benzonitrile]
IC50: 100 nM

Cc1c(COc2ccc(C3=NCCCN3C)c(OCc3cccc(C#N)c3)c2)cccc1-c1ccccc1 [Example 11, 3-[[2-(1-Methyl-5,6-dihydro-4H-pyrimidin-2-yl)-5-[(2-methyl-3-phenyl-phenyl)methoxy]phenoxy]methyl]benzonitrile]
IC50: 300 nM

Cc1c(COc2ccc(C3=NCCCN3CCO)c(OCc3cccc(C#N)c3)c2)cccc1-c1ccccc1 [Example 12, 3-[[2-[1-(2-Hydroxyethyl)-5,6-dihydro-4H-pyrimidin-2-yl]-5-[(2-methyl-3-phenyl-phenyl)methoxy]phenoxy]methyl]benzonitrile]
IC50: 110 nM

Cc1c(COc2ccc(/C(=N/CCO)NCCO)c(OCc3cccc(C#N)c3)c2)cccc1-c1ccccc1 [Example 13, 2-[(3-Cyanophenyl)methoxy]-N,N′-bis(2-hydroxyethyl)-4-[(2-methyl-3-phenyl-phenyl)methoxy]benzamidine]
IC50: 170 nM

CC(=O)NCC/N=C(\NCCNC(C)=O)c1ccc(OCc2cccc(-c3ccccc3)c2C)cc1OCc1cccc(C#N)c1 [Example 14, N-[2-[[(Z)—N-(2-Acetamidoethyl)-C-[2-[(3-cyanophenyl)methoxy]-4-[(2-methyl-3-phenyl-phenyl)methoxy]phenyl]carbonimidoyl]amino]ethyl]acetamide]
IC50: 330 nM

Cc1c(COc2ccc(C3=NCC(O)CN3)c(OCc3cncc(C#N)c3)c2)cccc1-c1ccccc1 (stereo not drawn) [Example 15, 5-((2-(5-Hydroxy-1,4,5,6-tetrahydropyrimidin-2-yl)-5-((2-methyl-[1,1′-biphenyl]-3-yl)methoxy)phenoxy)methyl)nicotinonitrile]
IC50: 15 nM

Cc1c(COc2cc(OCc3cncc(C#N)c3)c(C3=NCC(O)CN3)cc2Cl)cccc1-c1cccc(OCCCN2CCC(O)CC2)c1C (stereo not drawn) [Example 16, 5-[[4-Chloro-5-[[3-[3-[3-(4-hydroxy-1-piperidyl)propoxy]-2-methyl-phenyl]-2-methyl-phenyl]methoxy]-2-(5-hydroxy-1,4,5,6-tetrahydropyrimidin-2-yl)phenoxy]methyl]pyridine-3-carbonitrile]
IC50: 1.2 nM

Cc1c(COc2cc(OCc3cncc(C#N)c3)c(C3=NCCCN3CCO)cc2Cl)cccc1-c1cccc(OCCCN2CCC(O)CC2)c1C [Example 17, 5-[[4-Chloro-2-[1-(2-hydroxyethyl)-5,6-dihydro-4H-pyrimidin-2-yl]-5-[[3-[3-[3-(4-hydroxy-1-piperidyl)propoxy]-2-methyl-phenyl]-2-methyl-phenyl]methoxy]phenoxy]methyl] pyridine-3-carbonitrile]
IC50: 1.5 nM

Cc1c(COc2cc(OCc3cncc(C#N)c3)c(C3=NC(C(=O)O)CCN3)cc2Cl)cccc1-c1cccc(OCCCN2CCC(O)CC2)c1C (stereo not drawn) [Example 18, 2-[5-Chloro-2-[(5-cyano-3-pyridyl)methoxy]-4-[[3-[3-[3-(4-hydroxy-1-piperidyl)propoxy]-2-methyl-phenyl]-2-methyl-phenyl]methoxy]phenyl]-1,4,5,6-tetrahydropyrimidine-4-carboxylic acid]
IC50: 1.2 nM

Cc1c(COc2cc(OCc3cncc(C#N)c3)c(C3=NC(C(=O)O)CN3)cc2Cl)cccc1-c1cccc(OCCCN2CCC(O)CC2)c1C (stereo not drawn) [Example 19, 2-[5-Chloro-2-[(5-cyano-3-pyridyl)methoxy]-4-[[3-[3-[3-(4-hydroxy-1-piperidyl)propoxy]-2-methyl-phenyl]-2-methyl-phenyl]methoxy]phenyl]-4,5-dihydro-1H-imidazole-4-carboxylic acid]
IC50: 1.2 nM

COC(=O)c1c[nH]c(-c2cc(Cl)c(OCc3cccc(-c4cccc(OCCCN5CCC(O)CC5)c4C)c3C)cc2OCc2cncc(C#N)c2)n1 [Example 20, Methyl 2-(5-chloro-2-((5-cyanopyridin-3-yl)methoxy)-4-((3′-(3-(4-hydroxypiperidin-1-yl)propoxy)-2,2′-dimethyl-[1,1′-biphenyl]-3-yl)methoxy)phenyl)-1H-imidazole-5-carboxylate]
IC50: 10 nM

Cc1c(COc2cc(OCc3cncc(C#N)c3)c(C3=NCC(OCC(=O)O)CN3)cc2Cl)cccc1-c1cccc(OCCCN2CCC(O)CC2)c1C (stereo not drawn) [Example 21, 2-[[2-[5-Chloro-2-[(5-cyano-3-pyridyl)methoxy]-4-[[3-[3-[3-(4-hydroxy-1-piperidyl)propoxy]-2-methyl-phenyl]-2-methyl-phenyl]methoxy]phenyl]-1,4,5,6-tetrahydropyrimidin-5-yl]oxy] acetic acid]
IC50: 0.8 nM

Cc1c(COc2cc(OCc3cncc(C#N)c3)c(C3=NCCN3CCO)cc2Cl)cccc1-c1cccc(OCCCN2CCC(O)CC2)c1C [Example 22, 5-[[4-Chloro-2-[1-(2-hydroxyethyl)-4,5-dihydroimidazol-2-yl]-5-[[3-[3-[3-(4-hydroxy-1-piperidyl)propoxy]-2-methyl-phenyl]-2-methyl-phenyl]methoxy]phenoxy]methyl]pyridine-3-carbonitrile]
IC50: 3.8 nM

Cc1c(COc2cc(OCc3cncc(C#N)c3)c(C3=NCC(O)CN3CCO)cc2Cl)cccc1-c1cccc(OCCCN2CCC(O)CC2)c1C (stereo not drawn) [Example 23]
IC50: 14 nM

Cc1c(COc2cc(OCc3cncc(C#N)c3)c(C3=NCCN3CC(=O)O)cc2Cl)cccc1-c1cccc(OCCCN2CCC(O)CC2)c1C [Example 24, 2-[2-[5-Chloro-2-[(5-cyano-3-pyridyl)methoxy]-4-[[3-[3-[3-(4-hydroxy-1-piperidyl)propoxy]-2-methyl-phenyl]-2-methyl-phenyl]methoxy]phenyl]-4,5-dihydroimidazol-1-yl]acetic acid]
IC50: 1.1 nM

Cc1c(COc2cc(OCc3cncc(C#N)c3)c(C3=NCC(O)CN3)cc2Cl)cccc1-c1cccc(OCC(CN2CCC(O)CC2)c2ccccc2)c1C (stereo not drawn) [Example 25, 5-[[4-chloro-5-[[3-[3-[3-(4-hydroxy-1-piperidyl)-2-phenyl-propoxy]-2-methyl-phenyl]-2-methyl-phenyl]methoxy]-2-(5-hydroxy-1,4,5,6-tetrahydropyrimidin-2-yl)phenoxy]methyl]pyridine-3-carbonitrile]
IC50: 30 nM

Cc1c(COc2cc(OCc3cncc(C#N)c3)c(C3=NCC(O)CN3)cc2Cl)cccc1-c1cccc(OCC(CO)c2ccccc2)c1C (stereo not drawn) [Example 26, 5-[[4-Chloro-5-[[3-[3-(3-hydroxy-2-phenyl-propoxy)-2-methyl-phenyl]-2-methyl-phenyl]methoxy]-2-(5-hydroxy-1,4,5,6-tetrahydropyrimidin-2-yl)phenoxy]methyl]pyridine-3-carbonitrile]
IC50: 7.4 nM
